Measurements published in patent US20080176838A1, “Dpp-IV Inhibitors” (SANTHERA PHARMACEUTICALS (DEUTSCHLAND) AG, priority 2004, published 2008).

Biological target: T1, DPP-IV (Homo sapiens, UniProt P27487)
T1 construct: Soluble human DPP-IV lacking the transmembrane anchor (Gly31-Pro766); Pre-Pro-alpha-mating factor leader (secretion fusion) (N, cleaved yes); made in house
Experiment: Continuous fluorimetric assay of inhibition of DPP-IV peptidase activity (cleavage of Gly-Pro-AMC)
Assay type: biochemical
Details: substrate Gly-Pro-AMC 16 μM, pH 7.4, 25° C., 1% DMSO
Description: Inhibition of DPP-IV peptidase activity was monitored with a continuous fluorimetric assay. This assay is based on the cleavage of the substrate Gly-Pro-AMC (Bachem) by DPP-IV, releasing free AMC. The assay is carried out in 96-well microtiterplates. In a total volume of 100 μL, compounds are preincubated with […] DPP-IV employing a buffer containing 10 mM Hepes, 150 mM NaCl, 0.005% Tween 20 (pH 7.4). […] The final concentration of DMSO is 1%. The inhibitory potential of the compounds were determined.
Soluble human DPP-IV lacking the transmembrane anchor (Gly31-Pro766) was expressed in a recombinant YEAST-strain as Pre-Pro-alpha-mating fusion.

T1 sequence (P27487 31-766): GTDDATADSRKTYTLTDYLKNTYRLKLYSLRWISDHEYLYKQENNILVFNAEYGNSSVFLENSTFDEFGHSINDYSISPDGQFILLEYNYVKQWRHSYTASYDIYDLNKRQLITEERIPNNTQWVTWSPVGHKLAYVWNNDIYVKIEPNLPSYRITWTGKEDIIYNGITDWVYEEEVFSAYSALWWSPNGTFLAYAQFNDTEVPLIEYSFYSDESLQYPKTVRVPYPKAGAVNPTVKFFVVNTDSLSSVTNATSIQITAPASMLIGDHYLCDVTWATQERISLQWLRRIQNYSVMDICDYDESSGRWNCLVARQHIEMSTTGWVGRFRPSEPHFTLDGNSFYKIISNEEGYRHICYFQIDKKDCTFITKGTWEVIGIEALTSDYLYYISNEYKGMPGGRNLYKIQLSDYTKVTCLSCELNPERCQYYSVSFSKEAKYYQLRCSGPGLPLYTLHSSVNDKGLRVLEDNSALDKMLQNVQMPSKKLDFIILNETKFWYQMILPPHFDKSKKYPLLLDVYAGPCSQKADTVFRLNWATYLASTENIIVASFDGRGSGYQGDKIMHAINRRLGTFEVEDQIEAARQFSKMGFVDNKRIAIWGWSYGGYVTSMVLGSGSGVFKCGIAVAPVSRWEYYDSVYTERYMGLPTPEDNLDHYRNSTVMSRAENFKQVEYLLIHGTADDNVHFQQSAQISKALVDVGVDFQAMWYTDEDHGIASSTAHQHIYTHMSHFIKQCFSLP

| IC50 | Compound |
| --- | --- |
| < 100 nM | N[C@@H](CCN1CCC[C@H]1CNS(=O)(=O)c1ccccc1)Cc1ccccc1F [Example 25] |
| 101 to 1000 nM | N[C@@H](CCN1Cc2ccccc2C[C@H]1C(=O)NC1CC1)Cc1ccccc1F [Example 26] |
| < 100 nM | N[C@@H](CCN1CCC[C@H]1CNC(=O)C1CC1)Cc1ccccc1F [Example 27, Cyclopropanecarboxylic acid {1-[(3R)-amino-4-(2-fluoro-phenyl)-butyl]-pyrrolidin-(2S)-ylmethyl}-amide] |
| 101 to 1000 nM | N[C@@H](CCN1Cc2ccccc2C[C@H]1CNC(=O)C1CC1)Cc1ccccc1F [Example 28] |
| < 100 nM | N[C@@H](CCN1CCC[C@H]1CNS(=O)(=O)C1CC1)Cc1ccccc1F [Example 29] |
| < 100 nM | CS(=O)(=O)NC[C@@H]1CCCN1CC[C@H](N)Cc1ccccc1F [Example 30] |
| < 100 nM | N#Cc1cccc(S(=O)(=O)NC[C@@H]2CCCN2CC[C@H](N)Cc2ccccc2F)c1 [Example 31] |
| < 100 nM | N[C@@H](CCN1CCC[C@H]1CNS(=O)(=O)CC(F)(F)F)Cc1ccccc1F [Example 33] |
| 101 to 1000 nM | N[C@@H](CCN1CCOCC1CNS(=O)(=O)C1CC1)Cc1ccccc1F (some centres unmarked) [Example 35] |
| 101 to 1000 nM | N[C@@H](CCN1CCC[C@H]1COCc1ccccc1)Cc1ccccc1F [Example 44, (1R)-3-[(2S)-2-Benzyloxymethyl-pyrrolidin-1-yl]-1-(2-fluoro-benzyl)-propylamine] |
| < 100 nM | N[C@@H](CCN1CCC[C@H]1COc1cccc(F)c1)Cc1cccc(Cl)c1 [Example 45, (1R)-(3-Chloro-benzyl)-3-[(2S)-(3-fluoro-phenoxymethyl)-pyrrolidin-1-yl]-propylamine] |
| < 100 nM | N[C@@H](CCN1CCC[C@H]1COc1cccc(F)c1)Cc1ccccc1F [Example 46] |
| 101 to 1000 nM | N[C@@H](CCN1Cc2ccccc2C[C@H]1COc1cccc(F)c1)Cc1ccccc1F [Example 47] |
| 101 to 1000 nM | COC[C@@H]1CCCN1CC[C@H](N)Cc1ccccc1F [Example 48] |
